Test system: colon cancer (HT-29) cells
Assay: XTT assay, relative viability of colon cancer (HT-29) cells
Format: cell-based
Conditions: after 24 hours
Experimental: Samples were prepared by introducing the nano contrast agents (CIONPs) and the iron oxide (Fe3O4) nanoparticle drug carriers (DOX-CIONPs) prepared in Examples 2 and 3 and anti-cancer medicines (Doxorubicine) into colon cancer (HT-29) cells by concentrations of 0.001, 0.01, 0.1, 1 and 10 mM. After 24 hours, XTT reagent was added to each sample and relative viability of cancer cells according to the concentration of CIONPs, DOX-CIONPs and anti-cancer medicines (Doxorubicine) were measured. The measurement was carried out by comparing optical absorbances of formazan products from the cancer cells using an absorption spectrometer (XTT assay).

COc1cccc2c1C(=O)c1c(O)c3c(c(O)c1C2=O)C[C@@](O)(C(=O)CO)C[C@@H]3O[C@H]1C[C@H](N)[C@H](O)[C@H](C)O1 [Doxorubicine]
cancer cells perished (0.1 mM): 35%
cancer cells perished (1 mM): 60%
cancer cells perished (10 nm (so in the source)): 62%
